Read-outs that look alike come from different tables or passages of the source.

Assay [1] has as its system COLO320DM cells. In kind it is cell-based. As to conditions: COLO320DM cells, read-out: COLO320DM Proliferation Abs IC50. The procedure: COLO320DM proliferation assay IC50: In some embodiments, inhibition of cell proliferation by provided technologies were assessed using cell lines related to or from certain conditions, disorders or diseases. In some embodiments, cell proliferation was assessed in COLO320DM cells. In some embodiments, assessment was performed using the following procedure: On Day 1, cultured COLO320DM cells in a T75 flask were trypsinized in 3 mL of 0.25% trypsin/EDTA for 5 min and quenched with 10 mL RPMI-1640+4% HI FBS assay media. The cells were spun down at 1200 rpm for 5 min, the cell pellet collected and re-suspended at 5000 cells/mL in assay media. Using a Combi liquid handler, cells were dispensed (50 uL, 250 cells/well) into three 384 well plates. Plates were incubated at 37° C., […]. On day 2, compounds were added. A liquid handling system was used to prepare the compound dilution and dispense compound into assay plates. The compounds were serially diluted 1/2 in 90% DMSO to create a 7 point dose curve. From compound plate, 100 nL of compound were dispensed directly into wells of the assay plates to create a dose curve starting at 20 uM and ending at 313 nM. Assay plates were incubated at 37° C., […]. On day 6, assay plates were removed from the incubator and allowed to sit at room temperature for 30 min. Using a liquid handler, 20 uL of CellTiter Glo reagent was added to each well. The assay plates were shaken for 2 min and allowed to sit on the bench for 10-15 minutes. The assay plates were read using the CellTiter Glo protocol on a GloMax microplate reader, and the data analyzed using GraphPad Prism.

Assay [2] concerns TCF/LEF luciferase Reporter in DLD1 cells. Kind of assay: TCF reporter assay (DLD1 TCF/LEF luciferase reporter, Bright-Glo). The note with it: read-out: DLD1 4% Abs IC50. In kind it is cell-based. A digest of the protocol: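 Readouts: Bright-Glo luciferase for reporter signal and CellTiter-Glo for cell viability, with absolute IC50 derived. The reporter clone came from lentiviral TCF/LEF-luciferase transduction of DLD1 cells, seeded 5000 cells/well in RPMI with 4% FBS and exposed overnight to serially diluted compounds.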

Assay [3] concerns the target T1, beta-catenin/TCF4 engagement (Homo sapiens, UniProt P35222).
T1 construct: expressed in transfected cells; host or cells: HEK293
T1 sequence (P35222 1-781): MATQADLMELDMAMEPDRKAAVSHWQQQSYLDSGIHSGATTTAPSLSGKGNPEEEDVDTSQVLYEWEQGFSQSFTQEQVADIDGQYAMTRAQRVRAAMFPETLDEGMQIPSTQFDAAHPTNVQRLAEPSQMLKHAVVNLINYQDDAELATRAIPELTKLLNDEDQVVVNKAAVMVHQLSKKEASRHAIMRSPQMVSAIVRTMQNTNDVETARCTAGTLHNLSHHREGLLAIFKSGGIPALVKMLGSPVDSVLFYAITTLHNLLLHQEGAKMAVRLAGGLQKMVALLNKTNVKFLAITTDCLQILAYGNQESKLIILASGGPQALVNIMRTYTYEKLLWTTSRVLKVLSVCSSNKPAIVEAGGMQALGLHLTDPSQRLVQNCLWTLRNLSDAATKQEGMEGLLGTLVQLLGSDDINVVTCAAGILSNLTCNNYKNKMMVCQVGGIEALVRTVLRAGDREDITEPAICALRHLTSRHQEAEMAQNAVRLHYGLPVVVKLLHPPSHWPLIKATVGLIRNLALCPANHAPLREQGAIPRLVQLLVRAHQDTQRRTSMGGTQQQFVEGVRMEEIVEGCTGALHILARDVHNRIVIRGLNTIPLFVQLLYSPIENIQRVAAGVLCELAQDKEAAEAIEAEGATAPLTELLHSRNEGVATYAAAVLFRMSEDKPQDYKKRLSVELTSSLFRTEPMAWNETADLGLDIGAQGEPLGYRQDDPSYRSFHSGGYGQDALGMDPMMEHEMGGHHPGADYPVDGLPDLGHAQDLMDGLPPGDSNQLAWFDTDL
Kind of assay: Nano-BRET target engagement assay (B-cat-Halo & TCF4-Luc in HEK293 cells). In kind it is cell-based. (Bioluminescence resonance energy transfer reports proximity on the nanometre scale.)

Assay [4] has as its target T2, full-length beta-Catenin (Uniprot ID P35222) (Homo sapiens, UniProt P35222).
T2 construct: 10 nM full-length beta-Catenin (Uniprot ID P35222)
T2 sequence (P35222 1-781): T1 sequence (P35222 1-781)
Nature of the assay: Fluorescence polarization IC50 (beta-catenin / 5FAM-TCF4 10-53 competition). The assay is classed as binding. As to conditions: fluorescence polarization; read-out: beta-Catenin FP IC50.

[5] abbreviates: absolute IC50, read-out: NanoBRET Abs IC50.

Turning to `CC(=O)N1CCC[C@]12CC=CCCCC1(CCCC=CCCCOC(=O)N3CC[C@@](C(=O)N[C@@H](Cc4ccsc4)C(=O)N[C@@H](Cc4csc5ccccc45)C(=O)N[C@@H](CC(N)=O)C(=O)N[C@@H](CC(C)C)C(=O)N[C@@H](CC(C)C)C(=O)N[C@@H](CC(C)C)C(=O)N[C@@H](CC(C)C)C(=O)N[C@@H](CC(C)C)C(N)=O)(C3)NC(=O)[C@H](CC(C)C)NC(=O)[C@H](Cc3ccccc3)NC(=O)[C@H](C)NC(=O)[C@H](C)NC(=O)[C@H](Cc3cccc(C(=O)O)c3)NC(=O)[C@H](CC(=O)O)NC1=O)NC(=O)[C@H](CC(C)(C)C)NC(=O)[C@H](CC(=O)O)NC2=O` (single isomer, unassigned) [I-2280, Ac-PL3-Asp-Npg-B5-Asp-3COOHF-Ala-Ala-Phe-Leu-PyrS2-3Thi-BztA-Asn-Leu-Leu-Leu-Leu-Leu-NH2], the IC50 is above 20 µM in assay [1] (absolute IC50); above 20 µM in assay [2] (DLD1 reporter, 4%, absolute IC50); above 20 µM in assay [3] (NanoBRET Abs IC50 (uM), absolute IC50).

As for `CC(=O)N1CCC[C@]12CC=CCCCC1(CCCC=CCCCOC(=O)N3CC[C@@](C(=O)N[C@@H](Cc4ccccc4C(F)(F)F)C(=O)N[C@@H](Cc4csc5ccccc45)C(=O)N[C@@H](C)C(N)=O)(C3)NC(=O)[C@H](CC(C)C)NC(=O)[C@H](Cc3ccccc3)NC(=O)[C@H](C)NC(=O)[C@H](CCC(N)=O)NC(=O)[C@H](Cc3cccc(C(=O)O)c3)NC(=O)[C@H](CC(=O)O)NC1=O)NC(=O)[C@H](CC(C)(C)C)NC(=O)[C@H](CC(=O)O)NC2=O` (stereo partly drawn) [I-2057, Ac-PL3-Asp-Npg-B5-Asp-3COOHF-Gln-Ala-Phe-Leu-PyrS2-2F3MeF-BztA-Ala-NH2], the IC50 in assay [4] is 0.017 µM; in assay [1] it was above 20 µM; in assay [2] (DLD1 4%) it was 4 µM.

On to `CC(=O)N1CCC[C@]12CC=CCCCC1(CCCC=CCCCOC(=O)N3CC[C@@](C(=O)N[C@@H](Cc4ccccc4C(F)(F)F)C(=O)N[C@@H](Cc4csc5ccccc45)C(=O)N[C@@H](CCC(=O)N(C)C)C(N)=O)(C3)NC(=O)[C@H](CC(C)C)NC(=O)[C@H](Cc3ccccc3)NC(=O)[C@H](C)NC(=O)[C@H](C)NC(=O)[C@H](Cc3cccc(C(=O)O)c3)NC(=O)[C@H](CC(=O)O)NC1=O)NC(=O)[C@H](CC(C)(C)C)NC(=O)[C@H](CC(=O)O)NC2=O` (stereo partly drawn) [I-2532, Ac-PL3-Asp-Npg-B5-Asp-3COOHF-Ala-Ala-Phe-Leu-PyrS2-2F3MeF-BztA-Me2Gln-NH2], for which the IC50 in assay [4] was 0.014 µM; in assay [1] (absolute IC50) it was above 20 µM; in assay [3] (setting [5]), 4.5 µM.

For the compound `CCCC[C@@H]1NC(=O)[C@H](Cc2ccccc2)NC(=O)[C@H](C)NC(=O)[C@H](C)NC(=O)[C@H](Cc2cccc(C(=O)O)c2)NC(=O)[C@H](CC(=O)O)NC(=O)C2(CCCC=CCCCOC(=O)N3CC[C@@](C(=O)N[C@@H](Cc4ccccc4C(F)(F)F)C(=O)N[C@@H](Cc4csc5ccccc45)C(=O)N[C@@H](CCC(=O)N(C)C)C(N)=O)(C3)NC1=O)CCCC=CC[C@]1(CCCN1C(C)=O)C(=O)N[C@@H](CC(=O)O)C(=O)N[C@@H](CC(C)(C)C)C(=O)N2` (stereo partly drawn) [I-2533, Ac-PL3-Asp-Npg-B5-Asp-3COOHF-Ala-Ala-Phe-nLeu-PyrS2-2F3MeF-BztA-Me2Gln-NH2], the IC50 is 0.028 µM in assay [4], above 20 µM in assay [1] (absolute IC50) and 6.2 µM in assay [3] (setting [5]).

Take `CC(=O)N1CCC[C@]12CC=CCCCC1(CCCC=CCCCOC(=O)N3CC[C@@](C(=O)N[C@@H](Cc4ccccc4C(F)(F)F)C(=O)N[C@@H](Cc4csc5ccccc45)C(=O)N[C@@H](CCC(=O)N4CCOCC4)C(N)=O)(C3)NC(=O)[C@H](CC(C)C)NC(=O)[C@H](Cc3ccccc3)NC(=O)[C@H](C)NC(=O)[C@H](C)NC(=O)[C@H](Cc3cccc(C(=O)O)c3)NC(=O)[C@H](CC(=O)O)NC1=O)NC(=O)[C@H](CC(C)(C)C)NC(=O)[C@H](CC(=O)O)NC2=O` (stereo partly drawn) [I-2541, Ac-PL3-Asp-Npg-B5-Asp-3COOHF-Ala-Ala-Phe-Leu-PyrS2-2F3MeF-BztA-MorphGln-NH2]: the IC50 in assay [4] was 0.021 µM; in assay [1] (absolute IC50) it was above 20 µM; in assay [3] (setting [5]) it was 4.7 µM.

As to `CCCC[C@@H]1NC(=O)[C@H](Cc2ccccc2)NC(=O)[C@H](C)NC(=O)[C@H](C)NC(=O)[C@H](Cc2cccc(C(=O)O)c2)NC(=O)[C@H](CC(=O)O)NC(=O)C2(CCCC=CCCCOC(=O)N3CC[C@@](C(=O)N[C@@H](Cc4ccccc4C(F)(F)F)C(=O)N[C@@H](Cc4csc5ccccc45)C(=O)N[C@@H](CCC(=O)N4CCOCC4)C(N)=O)(C3)NC1=O)CCCC=CC[C@]1(CCCN1C(C)=O)C(=O)N[C@@H](CC(=O)O)C(=O)N[C@@H](CC(C)(C)C)C(=O)N2` (stereo partly drawn) [I-2542, Ac-PL3-Asp-Npg-B5-Asp-3COOHF-Ala-Ala-Phe-nLeu-PyrS2-2F3MeF-BztA-MorphGln-NH2], the IC50 in assay [4] was 0.023 µM; in assay [1] (absolute IC50), above 20 µM; in assay [3] (setting [5]), 4 µM.

For `CC(=O)N1CCC[C@]12CC=CCCCC1(CCCC=CCCCOC(=O)N3CC[C@@](C(=O)N[C@@H](Cc4ccsc4)C(=O)N[C@@H](Cc4csc5ccccc45)C(=O)N[C@H](CO)C(=O)N[C@@H](C)C(N)=O)(C3)NC(=O)[C@@H](CO)NC(=O)[C@H](Cc3ccccc3)NC(=O)[C@H](C)NC(=O)C(C)(C)NC(=O)[C@H](Cc3cccc(C(=O)O)c3)NC(=O)[C@H](CC(=O)O)NC1=O)NC(=O)[C@H](CC(C)(C)C)NC(=O)[C@H](CC(=O)O)NC2=O` (stereo partly drawn) [I-2576, Ac-PL3-Asp-Npg-B5-Asp-3COOHF-Aib-Ala-Phe-dSer-PyrS2-3Thi-BztA-dSer-Ala-NH2], the IC50 is 0.006 µM in assay [4], above 20 µM in assay [1] and 16.1 µM in assay [3] (read-out: NanoBRET Abs IC50).

On to `CC(=O)N1CCC[C@]12CC=CCCCC1(CCCC=CCCCOC(=O)N3CC[C@@](C(=O)N[C@@H](Cc4ccsc4)C(=O)N[C@@H](Cc4csc5ccccc45)C(=O)N[C@@H](CO)C(=O)N[C@@H](C)C(N)=O)(C3)NC(=O)[C@H](CO)NC(=O)[C@H](Cc3ccccc3)NC(=O)[C@H](C)NC(=O)C(C)(C)NC(=O)[C@H](Cc3cccc(C(=O)O)c3)NC(=O)[C@H](CC(=O)O)NC1=O)NC(=O)[C@H](CC(C)(C)C)NC(=O)[C@H](CC(=O)O)NC2=O` (stereo partly drawn) [I-2577, Ac-PL3-Asp-Npg-B5-Asp-3COOHF-Aib-Ala-Phe-Ser-PyrS2-3Thi-BztA-Ser-Ala-NH2], for which the figures for the IC50 in assay [4], in assay [1] and in assay [3] (read-out: NanoBRET Abs IC50) were 0.007 µM, 9.5 µM and 2.7 µM, respectively.

Regarding `CC(=O)NCCCC[C@@H]1NC(=O)[C@H](Cc2ccccc2)NC(=O)[C@H](C)NC(=O)C(C)(C)NC(=O)[C@H](Cc2cccc(C(=O)O)c2)NC(=O)[C@H](CC(=O)O)NC(=O)C2(CCCC=CCCCOC(=O)N3CC[C@@](C(=O)N[C@@H](Cc4ccccc4C(F)(F)F)C(=O)N[C@@H](Cc4csc5ccccc45)C(=O)N[C@@H](C)C(=O)N[C@@H](C)C(N)=O)(C3)NC1=O)CCCC=CC[C@]1(CCCN1C(C)=O)C(=O)N[C@@H](CC(=O)O)C(=O)N[C@@H](CC(C)(C)C)C(=O)N2` (stereo partly drawn) [I-2579, Ac-PL3-Asp-Npg-B5-Asp-3COOHF-Aib-Ala-Phe-AcLys-PyrS2-2F3MeF-BztA-Ala-Ala-NH2], the IC50 in assay [4] amounted to 0.041 µM; in assay [1], 15.3 µM; in assay [3] (read-out: NanoBRET Abs IC50), 4.7 µM.

(Values after patent US20240116985A1, “STAPLED PEPTIDES AND METHODS THEREOF” (priority 2020, published 2024).)
